Source: a melting point compilation (Tetko et al.; mined from patent text by program, amines drawn as free bases though some values may be those of a salt)

Work on `CCOC(=O)C1N=CSC12CCN(Cc1ccccc1)CC2` (stereo not given) yielded a melting point of 67 to 68 °C.
Work on `CO[C@@H](Cc1ccc(OCCc2nc(-c3ccc(C(F)(F)F)cc3)oc2C)c2ccccc12)C(=O)O` yielded a melting point of 167 to 168 °C.
Work on `Nc1ccc(Cc2ccc(N)c(C(F)(F)F)c2)cc1C(F)(F)F` yielded a melting point of 84 to 88 °C.
For `O=c1[nH]c2cc(Cl)ccc2c(=O)c(-c2ccco2)c1O`, the melting point was 233 to 234 °C.
In the case of `ClCCn1c(-c2ccccc2)nc2cc(CN3CCN(C(c4ccccc4)c4ccccc4)CC3)ccc21`, the melting point is reported as 174 to 180 °C.
For `CC(C)COc1ccc2c(c1)N(C)C(=O)N(c1ccc(Cl)cc1)S2(=O)=O`, the melting point was 108 to 110 °C.
For `CN1CC(CCN2CCN(c3ccccc3Cl)CC2)OC1=O` (stereo not given), the melting point was 79.5 to 81.5 °C.
Compound `Cc1ccccc1S(=O)(=O)NC(=O)c1csc(Cc2ccc3oc(-c4nc(C(C)(C)C)cs4)cc3c2)n1` has a melting point of 201 to 203 °C.
In the case of `Cc1cc(N)nc(CCCCNC(=O)Cc2ccc3c(c2)OCO3)c1`, the melting point is reported as 56 to 58 °C.
`CC(C)c1cccc(C(C)C)c1N1C(=O)c2cccc3c(Oc4ccc(C(C)(C)CC(C)(C)C)cc4)ccc(c23)C1=O` showed a melting point of 217 °C.
`CC1NC(=Nc2ccccc2N2CCOCC2)NC1C` (stereo not given) gave a melting point of 142 to 143 °C.
For `N#Cc1cnc2cc(-c3csc(CN4CCOCC4)c3)ccc2c1Nc1ccc(Cl)cc1Cl`, the melting point was 203 to 205 °C.
With `CC(c1c[nH]cn1)c1cccc(C#N)c1O` (stereo not given) the melting point was 172 °C.
In the case of `COC1CCN(c2cc(NC(=O)OC(C)(C)C)c(NC(=O)CC(=O)c3cccc(C#N)c3)cc2C#Cc2ccccc2)CC1`, the melting point is reported as 97 to 100 °C.
`CSc1c(S)c(SC)c(SC)c(SC)c1SC` gave a melting point of 60 °C.
Work on `CCSc1nnc(CO)n1Cc1ccc(N)cc1` yielded a melting point of 145 to 147 °C.
`COc1ccc(C2(C#Cc3cccc(-c4nnc(C)o4)c3)CCCC(=O)C2)cc1OC1CCCC1` (stereo not given) gave a melting point of 117 to 119 °C.
For `COc1ccc(Oc2c(C)cc([N+](=O)[O-])cc2C)cc1Cc1ccc(F)cc1`, the melting point was 105 to 110 °C.
Work on `Cc1cc(C#N)cn2cc(-c3ccc(-c4ccc(C#N)cc4)o3)nc12` yielded a melting point of 276 to 277 °C.
`COC(=O)c1cscc1NC(=O)COc1ccc(-c2ccccc2)cc1` showed a melting point of 132 to 135 °C.
Work on `Cc1cc(-c2ccc(F)cc2)co1` yielded a melting point of 95 to 97 °C.
Work on `CC(CNC(=O)C=CC=Cc1ccccc1)C(=O)NO` (stereo not given) yielded a melting point of 178 to 179 °C.
Compound `CN1C(C(=O)Nc2nc3c(s2)CCCC3)=C(O)c2ccc3ccccc3c2S1(=O)=O` has a melting point of 255 to 257 °C.
For `COc1cc2c(c3c1OC(C)(C)C3)C(c1cccc(NC(=O)C(C)(C)CCl)c1)=NC(C)(C)C2`, the melting point was 189 to 191 °C.
In the case of `Clc1ccc(C(CBr)OC2CCCC(COc3ccc(Cl)cc3Cl)O2)cc1` (stereo not given), the melting point is reported as 86 to 87 °C.
In the case of `O=C(O[C@H]1[C@H](OC(=O)c2ccccc2)[C@@H](CO)O[C@@H]1CO)c1ccccc1`, the melting point is reported as 120 to 122 °C.
`CC(C)c1ccc(S(=O)(=O)Nc2ncc(C(F)(F)F)cc2I)cc1` gave a melting point of 124 °C.
With `CCCc1c(OCCCCC(=O)N(CC)CC)ccc(C(C)=O)c1O` the melting point was 95 to 97 °C.
With `CCc1cn(C2CC(O)C(CNC(=O)C(C)Sc3ccc(Cl)cc3Cl)O2)c(=O)[nH]c1=O` (stereo not given) the melting point was 218 to 220 °C.
Work on `CC(C)S(=O)(=O)n1c(N)nc2ccc(C(=C(Cl)Cl)c3ccccc3)cc21` yielded a melting point of 187 to 188 °C.
In the case of `CC1CCc2c(N3CCCC3)c(F)cc3c(=O)c(C(=O)O)cn1c23` (stereo not given), the melting point is reported as 243 to 245 °C.
`COc1ccccc1N1CCN(CCC2C(=O)NCN3CCC4SC=C(C4=O)C(=O)C23)CC1` (stereo not given) gave a melting point of 162 to 164 °C.
Work on `CCCOc1ccccc1C(=O)Nc1ccncc1C(N)=O` yielded a melting point of 135 to 136 °C.
Work on `CNC1(C(=O)O)CCN(OC)CC1` yielded a melting point greater than 250 °C.
Compound `Nc1nc(N)nc(-c2cnccn2)n1` has a melting point greater than 250 °C.
Compound `CC(C)Cn1c(=O)n(C)c(=O)c2c(SCCCC(=O)O)c(Cc3cccc4ccccc34)sc21` has a melting point of 172 to 173 °C.
Work on `CN(C)c1c(S(=O)C(F)(F)F)c(C#N)nn1-c1c(Cl)cc(C(F)(F)F)cc1Cl` (stereo not given) yielded a melting point of 154 to 161 °C.
In the case of `Cc1ccc(C(=O)C(=NN)c2ccc(C)cc2)cc1`, the melting point is reported as 137 to 140 °C.
Work on `COc1ccc(C(=O)Nc2ccccc2)cc1NC(=S)NC(=O)c1ccccc1` yielded a melting point of 219 to 222 °C.
For `CCCCCCCCCCCc1[nH]c2cc(C(=O)O)ccc2c1C`, the melting point was 153 to 156 °C.
Work on `CCSc1ccc(C(=O)NCc2ccc3c(c2)C(=O)N(C2(C)CCC(=O)NC2=O)C3=O)cc1` (stereo not given) yielded a melting point of 135 to 137 °C.
With `CCOC(=O)OC1=C(c2c(C)cc(C)cc2C)C(=O)N(N(C)C)C12CCN(OC)CC2` the melting point was 116 to 119 °C.
Work on `CCCCC1(CCCC)CS(=O)(=O)c2ccc(N(C)C)cc2[C@@H](c2ccc(OCCCCCSc3nnnn3CC(=O)O)cc2)[C@H]1O` yielded a melting point of 119 to 123 °C.
In the case of `Oc1cc(-c2c(-c3ccccc3)nn3ccccc23)n[nH]1`, the melting point is reported as greater than 300 °C.
Work on `Cc1ccc(-c2cccc3c2OC(COS(=O)(=O)c2ccc(C)cc2)C3)cc1` (stereo not given) yielded a melting point of 145 to 147 °C.
`Cc1cc(C)cc(C(=O)NC(=S)Nc2c(O)cc(C)c(Br)c2C)c1` showed a melting point of 164 to 166 °C.
`CC1(NC(=O)c2ccccc2)COC(c2nc(-c3ccc(F)cc3)c(-c3ccncc3)[nH]2)OC1` (stereo not given) showed a melting point of 235 to 236 °C.
For `CSCc1ccccc1S(N)(=O)=O`, the melting point was 119 to 124 °C.
Work on `CN1CCc2cccc3c2C1Cc1ccc(O)c(O)c1-3` (stereo not given) yielded a melting point of 158 to 160 °C.
`CN(C)CC(O)C1=CC2(CCCC2)c2ccccc21` (stereo not given) gave a melting point of 133 to 134 °C.
